Common to all, as to format: biochemical
The target in one assay is T1, human cathepsin L (Homo sapiens, UniProt P07711).
T1 construct: purchased CN Biosciences
Put plainly: Cathepsin L peptidase activity assay (Ki). As to conditions: read-out: Ki, inhibitors of cathepsin L. The essentials: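 Run at 25±1° C with DMSO under 1%: buffer was 10 mM BTP pH 6.5 containing 1 mM EDTA, 1 mM CaCl2 and 5 mM 2-mercaptoethanol. Enzyme (1 nM cathepsin L) was added last to start hydrolysis of Ac-Phe-Arg-AMC held at KM^app (~20 μM), followed kinetically by fluorescence at 365/450 nm.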

The target of another assay is T2, human cathepsin B (Homo sapiens, UniProt P07858).
T2 construct: purchased CN Biosciences
The experiment in a line: Cathepsin B peptidase activity assay (Ki). As to conditions: read-out: Ki, inhibitors of cathepsin B. On the procedure: Unless otherwise stated, all general chemicals and biochemicals were purchased from either the Sigma Chemical Company, Poole, Dorset, U.K or from Fisher Scientific UK, Loughborough, Leicestershire, U.K. Absorbance assays were carried out in flat-bottomed 96-well plates (Spectra; Greiner Bio-One Ltd., Stonehouse, Gloucestershire, U.K.) using a SpectraMax PLUS384 plate reader (Molecular Devices, Crawley, U.K.). […] Fluorescence assays were monitored using a SpectraMax Gemini fluorescence plate reader (Molecular Devices). For substrates employing either a 7-amino-4-methylcoumarin (AMC) or a 7-amino-4-trifluoromethylcoumarin (AFC) fluorophore, assays were monitored at an excitation wavelength of 365 nm and an emission wavelength of 450 nm and the fluorescence plate reader calibrated with AMC. For substrates employing a 3-amino-benzoyl (Abz) fluorophore, assays were monitored at an excitation wavelength of 310 nm and an emission wavelength of 445 nm; the fluorescence plate reader calibrated with 3-amino-benzamide (Fluka). Unless otherwise indicated, all the peptidase substrates were purchased from Bachem UK, St Helens, Merseyside, UK. […] Hydroxyethylpiperazine ethanesulfonate (HEPES), tris-hydroxylmethyl aminomethane (tris) base, bis-tris-propane and all the biological detergents (e.g. CHAPS, zwittergents, etc.) were purchased from CN Biosciences UK, Beeston, Nottinghamshire, U.K. Glycerol was purchased from Amersham Pharmacia Biotech, Little Chalfont, Buckinghamshire, U.K. Stock solutions of substrate or inhibitor were made up to 10 mM in 100% dimethylsulfoxide (DMSO) (Rathburns, Glasgow, U.K.) and diluted as appropriately required. In all cases the DMSO concentration in the assays was maintained at less than 1% (vol./vol.).
Enzyme was added as required to initiate the reaction and the activity, as judged by the change in fluorescence upon conversion of substrate to product, was monitored over time. All assays were carried out at 25±1° C.
Bovine cathepsin S, human cathepsin L, human cathepsin H and human cathepsin B were obtained from CN Biosciences. Recombinant human cathepsin S, human cathepsin K and human cathepsin X were obtained from Dr. Boris Turk (Josef Stefan Institute, Ljubljana, Slovenia). Unless otherwise stated, all peptidase activity assays were carried out in 10 mM bis-tris-propane (BTP), pH 6.5 containing 1 mM EDTA, 5 mM 2-mercaptoethanol and 1 mM CaCl2.
The apparent inhibition constant (Ki) for each compound was determined on the basis that inhibition was reversible and occurred by a pure-competitive mechanism. […] [formula]
[formula] Ki^app=Ki(1+[So]/KM^app) (4)
Curves were fitted by non-linear regression analysis (Prism) using a fixed value for the enzyme concentration.

Another assay has as its target Wild-type cruzipain (Trypanosoma cruzi, UniProt P25779). The experiment in a line: Trypanosoma cruzi cruzipain peptidase activity assay (Ki). As to conditions: read-out: Ki, inhibitors of cruzain and cruzipains. Put shortly: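 Native cruzipain from T. cruzi Dm28 epimastigotes, 2.5 nM, in 100 mM sodium phosphate pH 6.75 with 1 mM EDTA and 10 mM L-cysteine, 25 °C, DMSO <1%. Rates taken from continuous fluorogenic substrate read; Ki by regression assuming reversible pure-competitive inhibition.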

A further assay deals with T3, CPB2.8ΔCTE (Leishmania mexicana, UniProt P36400).
T3 construct: Wild-type recombinant CPB without the C-terminal extention (i.e. CPB2.8ΔCTE); Dr. Jeremy Mottram (Wellcome Centre for Molecular Parasitology, University of Glasgow)
T3 sequence (P36400 126-343, stated change not applied): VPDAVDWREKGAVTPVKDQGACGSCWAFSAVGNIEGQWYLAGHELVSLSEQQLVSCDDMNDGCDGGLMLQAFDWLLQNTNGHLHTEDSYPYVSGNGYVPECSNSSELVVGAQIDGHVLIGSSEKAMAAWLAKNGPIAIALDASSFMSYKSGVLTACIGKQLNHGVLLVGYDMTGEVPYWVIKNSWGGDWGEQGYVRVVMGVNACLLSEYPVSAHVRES
The experiment in a line: Leishmania mexicana cysteine protease B (CPB) peptidase activity assay (Ki). As to conditions: Ki, inhibitors of Leismania mexicana CPB protease. Put shortly:
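Apparent Ki was derived by regression of activity against inhibitor concentration, assuming pure-competitive reversible binding. Reaction: 0.25 nM CPB lacking the C-terminal extension, pH 5.5 acetate buffer (1 mM EDTA, 200 mM NaCl, 10 mM DTT), 25 °C, followed by continuous substrate fluorescence.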

Our source for the Ki values is US20060100431A1, “Biologically active compounds” (Amura Therapeutics Limited, priority 2002, published 2006).

The structures appear in SMILES notation.

T1 sequence (P07711 114-333): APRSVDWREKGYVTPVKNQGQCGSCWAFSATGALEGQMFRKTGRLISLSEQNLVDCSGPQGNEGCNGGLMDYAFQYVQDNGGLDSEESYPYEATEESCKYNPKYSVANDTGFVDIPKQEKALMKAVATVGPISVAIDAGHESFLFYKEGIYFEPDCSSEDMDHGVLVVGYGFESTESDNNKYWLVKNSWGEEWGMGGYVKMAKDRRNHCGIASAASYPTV
Sequence of Wild-type cruzipain (P25779 whole entry): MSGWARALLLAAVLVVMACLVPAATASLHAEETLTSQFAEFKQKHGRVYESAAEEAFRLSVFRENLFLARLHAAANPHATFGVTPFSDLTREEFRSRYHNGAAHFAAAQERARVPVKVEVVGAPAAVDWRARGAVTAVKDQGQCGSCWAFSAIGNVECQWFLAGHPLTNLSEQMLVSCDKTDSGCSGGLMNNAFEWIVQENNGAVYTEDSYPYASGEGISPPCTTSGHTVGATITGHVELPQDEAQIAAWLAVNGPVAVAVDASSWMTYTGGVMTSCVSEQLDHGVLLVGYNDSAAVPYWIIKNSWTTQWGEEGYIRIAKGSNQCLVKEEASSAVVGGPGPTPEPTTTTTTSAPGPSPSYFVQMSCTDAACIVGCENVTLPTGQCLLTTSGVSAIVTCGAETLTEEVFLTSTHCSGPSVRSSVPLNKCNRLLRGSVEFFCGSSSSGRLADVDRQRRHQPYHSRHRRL

For the compound `O=C(N[C@@H](CSCc1ccccc1)C(=O)N1CC[C@@H]2[C@H]1C(=O)CN2C(=O)c1ccccc1)C(c1ccccc1)c1ccccc1` [Example 269, (3aR,6aS)-N-[(1R)-2-(4-Benzoyl-6-oxo-hexahydro-pyrrolo[3,2-b]pyrrol-1-yl)-1-benzylsulfanylmethyl-2-oxo-ethyl]-2,2-diphenyl-acetamide], the Ki at human cathepsin L and on human cathepsin B was less than 5 µM each time.

For `O=C(N[C@@H](CSCc1ccccc1)C(=O)N1CC[C@@H]2[C@H]1C(=O)CN2C(=O)C1CCCCC1)c1ccsc1` [Example 273, (3aR,6aS)-Thiophene-3-carboxylic acid [(1R)-1-benzylsulfanylmethyl-2-(4-cyclohexanecarbonyl-6-oxo-hexahydro-pyrrolo[3,2-b]pyrrol-1-yl)-2-oxo-ethyl]-amide], the Ki on human cathepsin L and at human cathepsin B was less than 5 µM each time.

`CC(C)C[C@H](NC(=O)c1ccc(N(C)C)cc1)C(=O)N1CC[C@@H]2[C@H]1C(=O)CN2C(=O)c1ccc2c(c1)OCO2` [Example 77, (3aR,6aS)-N-{(1S)-1-[4-(Benzo[1,3]dioxole-5-carbonyl)-6-oxo-hexahydro-pyrrolo[3,2-b]pyrrole-1-carbonyl]-3-methyl-butyl}-4-dimethylamino-benzamide]: the Ki on Wild-type cruzipain, at CPB2.8ΔCTE and on human cathepsin B was less than 5 µM in each case.

For `CC(C)C[C@H](NC(=O)c1ccc(N(C)C)cc1)C(=O)N1CC[C@@H]2[C@H]1C(=O)CN2C(=O)c1ccc2nonc2c1` [Example 102, (3aR,6aS)-N-{(1S)-1-[4-(Benzo[1,2,5]oxadiazole-5-carbonyl)-6-oxo-hexahydro-pyrrolo[3,2-b]pyrrole-1-carbonyl]-3-methyl-butyl}-4-dimethylamino-benzamide], the Ki at Wild-type cruzipain, at CPB2.8ΔCTE and on human cathepsin B was less than 5 µM throughout.

`CC(C)C[C@H](NC(=O)c1ccc(N(C)C)cc1)C(=O)N1CC[C@@H]2[C@H]1C(=O)CN2C(=O)c1cccc(S(C)(=O)=O)c1` [Example 43, (3aR,6aS)-4-Dimethylamino-N-{(1S)-1-[4-(3-methanesulfonyl-benzoyl)-6-oxo-hexahydro-pyrrolo[3,2-b]pyrrole-1-carbonyl]-3-methyl-butyl}-benzamide]: the Ki on Wild-type cruzipain, at CPB2.8ΔCTE and on human cathepsin B was less than 5 µM throughout.

With `CC(C)C[C@H](NC(=O)c1ccc(C(C)(C)C)cc1)C(=O)N1CC[C@@H]2[C@H]1C(=O)CN2C(=O)c1cncc(-c2cccs2)c1` [Example 35, (3aR,6aS)-4-tert-Butyl-N-{(1S)-3-methyl-1-[6-oxo-4-(5-thiophen-2-yl-pyridine-3-carbonyl)-hexahydro-pyrrolo[3,2-b]pyrrole-1-carbonyl]-butyl}-benzamide], the Ki at Wild-type cruzipain, at CPB2.8ΔCTE and on human cathepsin B was less than 5 µM each time.

`CC(C)C[C@H](NC(=O)c1ccc(N(C)C)cc1)C(=O)N1CC[C@@H]2[C@H]1C(=O)CN2C(=O)c1ccc(Cl)cc1` [Example 74, (3aR,6aS)-N-{(1S)-1-[4-(4-Chloro-benzoyl)-6-oxo-hexahydro-pyrrolo[3,2-b]pyrrole-1-carbonyl]-3-methyl-butyl}-4-dimethylamino-benzamide]: the Ki at Wild-type cruzipain, at CPB2.8ΔCTE and at human cathepsin B was less than 5 µM in each case.

On to `CCC(C)CC(=O)N1CC(=O)[C@@H]2[C@H]1CCN2C(=O)[C@H](CC(C)C)NC(=O)c1ccc(N(C)C)cc1` (stereo partly drawn) [Example 141, (3aR,6aS)-4-Dimethylamino-N-{(1S)-3-methyl-1-[4-(3-methyl-pentanoyl)-6-oxo-hexahydro-pyrrolo[3,2-b]pyrrole-1-carbonyl]-butyl}-benzamide], for which the Ki on Wild-type cruzipain, at CPB2.8ΔCTE and on human cathepsin B was less than 5 µM throughout.

`CC(C)C[C@H](NC(=O)c1ccc(N(C)C)cc1)C(=O)N1CC[C@@H]2[C@H]1C(=O)CN2C(=O)C12CC3CC(CC(C3)C1)C2` [Example 48, (3aR,6aS)-N-{(1S)-1-[4-(Adamantane-1-carbonyl)-6-oxo-hexahydro-pyrrolo[3,2-b]pyrrole-1-carbonyl]-3-methyl-butyl}-4-dimethylamino-benzamide]: the Ki at Wild-type cruzipain, on CPB2.8ΔCTE and at human cathepsin B was less than 5 µM each time.

For the compound `O=C(N[C@@H](CC1CCCCC1)C(=O)N1CC[C@@H]2[C@H]1C(=O)CN2C(=O)c1ccccc1)c1cccc(Oc2ccccc2)c1` [Example 259, (3aR,6aS)-N-[(1S)-2-(4-Benzoyl-6-oxo-hexahydro-pyrrolo[3,2-b]pyrrol-1-yl)-1-cyclohexylmethyl-2-oxo-ethyl]-3-phenoxy-benzamide], the Ki at human cathepsin L and on human cathepsin B was less than 5 µM in each case.

Regarding `O=C(N[C@@H](CSCc1ccccc1)C(=O)N1CC[C@@H]2[C@H]1C(=O)CN2C(=O)c1ccccc1)c1ccsc1` [Example 251, (3aR,6aS)-Thiophene-3-carboxylic acid [(1R)-2-(4-benzoyl-6-oxo-hexahydro-pyrrolo[3,2-b]pyrrole-1-yl)-1-benzylsulfanylmethyl-2-oxo-ethyl]-amide], the Ki on human cathepsin L and on human cathepsin B was less than 5 µM throughout.

For the compound `O=C(N[C@@H](CC1CCCCC1)C(=O)N1CC[C@@H]2[C@H]1C(=O)CN2C(=O)c1ccc(-c2ccccc2)s1)c1ccsc1` [Example 258, (3aR,6aS)-Thiophene-3-carboxylic acid {(1S)-1-cyclohexylmethyl-2-oxo-2-[6-oxo-4-(5-phenyl-thiophene-2-carbonyl)-hexahydro-pyrrolo[3,2-b]pyrrole-1-yl]-ethyl}-amide], the Ki on human cathepsin L and on human cathepsin B was less than 5 µM in each case.

With `CS(=O)(=O)c1cccc(C(=O)N2CC(=O)[C@@H]3[C@H]2CCN3C(=O)[C@H](CSCc2ccccc2)NC(=O)c2ccsc2)c1` [Example 262, (3aR,6aS)-Thiophene-3-carboxylic acid {(1R)-1-benzylsulfanylmethyl-2-(4-(3-methanesulfonyl-benzoyl)-6-oxo-hexahydro-pyrrolo[3,2-b]pyrrol-1-yl)-2-oxo-ethyl}-amide], the Ki on human cathepsin L and on human cathepsin B was less than 5 µM in each case.

For `CC(C)C[C@H](NC(=O)c1ccc(N(C)C)cc1)C(=O)N1CC[C@@H]2[C@H]1C(=O)CN2C(=O)c1ccc(Cl)s1` [Example 166, (3aR,6aS)-N-{(1S)-1-[4-(5-Chloro-thiophene-2-carbonyl)-6-oxo-hexahydro-pyrrolo[3,2-b]pyrrole-1-carbonyl]-3-methyl-butyl}-4-dimethylamino-benzamide], the Ki on Wild-type cruzipain, at CPB2.8ΔCTE and at human cathepsin B was less than 5 µM in each case.

Consider `CC(C)C[C@H](NC(=O)c1ccc(N(C)C)cc1)C(=O)N1CC[C@@H]2[C@H]1C(=O)CN2C(=O)c1ccc2cc[nH]c2c1` [Example 99, (3aR,6aS)-4-Dimethylamino-N-{(1S)-1-[4-(1H-indole-6-carbonyl)-6-oxo-hexahydro-pyrrolo[3,2-b]pyrrole-1-carbonyl]-3-methyl-butyl}-benzamide], for which the Ki on Wild-type cruzipain, on CPB2.8ΔCTE and on human cathepsin B was less than 5 µM throughout.

Take `CC(C)C[C@H](NC(=O)c1ccc(C(C)(C)C)cc1)C(=O)N1CC[C@@H]2[C@H]1C(=O)CN2C(=O)c1ccc2ccccc2c1` [Example 34, (3aR,6aS)-4-tert-Butyl-N-{(1S)-3-methyl-1-[4-(naphthalene-2-carbonyl)-6-oxo-hexahydro-pyrrolo[3,2-b]pyrrole-1-carbonyl]-butyl}-benzamide]: the Ki at Wild-type cruzipain, at CPB2.8ΔCTE and on human cathepsin B was less than 5 µM throughout.
